Data published in patent publication US6389740B1, “Lethal mosquito breeding container” (The United States of America as represented by the …, priority 1997, dated 2002).
Where two headings read alike, the source gives them in different places.

Experiments:
[1] = rat, 90 day period; cited from earlier work
[2] = 2 year beagle; cited from earlier work
[3] = system: mosquitoes; experiment: Caged mortality test of egg laying structures returned after one month in the field; details: paper paddles returned to the lab after one month in the field
Description: A field test of a lethal breeding container according to Example 2, containing 0.87 deltramethrin on the egg laying structure, was conducted at three military housing sites in the Rio de Janeiro area of Brazil. At each housing site, six houses were selected to receive the lethal breeding containers. About 500 meters away, six houses were selected to serve as control units.
After one month in the field, the egg laying structures from the lethal container breeding containers were dried and shipped to the U.S. for testing. Four egg laying structures from outside lethal mosquito breeding containers and four egg laying structures from inside lethal mosquito breeding containers were reused in lethal. mosquito breeding containers and the mortality rate was determined.
A 1 cubic foot mosquito cage was used. The mosquitoes are given a blood meal at day 4 to 6 after post-emergence. […]
The mortality rate is determined by counting the number of deceased mosquitoes and live mosquitoes, adding these numbers together to arrive at the total number of mosquitoes exposed, and then dividing number of deceased mosquitoes by the total number of mosquitoes and multiplying that quotient by 100%. […]

CC1(C)[C@H](C(=O)O[C@H](C#N)c2cccc(Oc3ccccc3)c2)[C@@H]1C=C(Br)Br [deltamethrin]
NOEL [1]: 1 mg/kg/day | NOEL [2]: 1 mg/kg/day | average mortality in caged tests [3]: 80%
